Test in all cases: NCI anticancer screen, dose series, 48 h
Assay [1] deals with OVCAR-5 ovarian.
Assay [2] has as its system UACC-62 melanoma.
For assay [3], the system named is CAKI-1 renal.
Assay [4] concerns A549 NSCLC.
The test system of assay [5] is OVCAR-3 ovarian.
Assay [6] has as its system HOP-62 NSCLC.
Assay [7] deals with COLO 205 colon.
Assay [8] concerns UO-31 renal.
Assay [9] concerns LOX IMVI melanoma.
In assay [10] the test system is RXF 393 renal.

Each structure is given as a SMILES string. Where “and” joins values, the source holds several entries; their conditions need not be identical. Identical values can stand only once.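 Where inhibition never reached the appropriate level, the endpoint shown equals the highest concentration tested. Otherwise, values were interpolated linearly from a five-concentration, 48-hour dose response in 96-well plates. The concentration for 50% growth inhibition is given as GI50. TGI: total growth inhibition.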

With `CNc1nc(N(C)C)nc(N(C)C)n1`, the GI50 in assay [1] was > 100 µM and 909 µM; in assay [2], > 100 µM and 952 µM; in assay [3] it was > 100 µM and 926 µM; in [4] it was > 100 µM and 2150 µM; in [5], > 100 µM and 981 µM; in assay [6], > 100 µM and 970 µM. For the same compound, the GI50 in assay [7] was > 100 µM and 1780 µM; in [8], > 100 µM and 828 µM; in assay [9] it was > 100 µM and 901 µM; in assay [10], > 100 µM and 975 µM. For the same compound, the TGI was > 100 µM and 3960 µM in assay [1]; > 100 µM and 3640 µM in assay [2]; > 100 µM and 2620 µM in [3]; > 100 µM and 3500 µM in assay [4]; > 100 µM and 2300 µM in assay [5]; > 100 µM and 1890 µM in assay [6]. The TGI was > 100 µM and 4010 µM in assay [7]; > 100 µM and 3250 µM in assay [8]; > 100 µM and 5150 µM in assay [9]; > 100 µM and 3070 µM in [10].
Regarding `CCOC1C=CCCO1` (stereo not given), the TGI in [1], in assay [2], in assay [3], in assay [4], in [5] and in assay [6] was above 100 µM in each case. For the same compound, the TGI is above 100 µM in [7], 38.8 µM in assay [8], above 100 µM in assay [9] and above 100 µM in assay [10].
As for `C=C1C(=O)O[C@H]2[C@H]1CC/C(CNS(=O)(=O)c1cccc3ccccc13)=C\CC[C@@]1(C)O[C@@H]21`, the GI50 in assay [1] is 2.84 µM; in assay [2], 1.67 µM; in assay [3], 1.12 µM; in assay [4], 11.5 µM; in assay [5], 1.16 µM; in assay [6] it was 13.4 µM. The GI50 in [7] is 1.73 µM; in [8] it was 1.45 µM; in assay [9], 1.45 µM; in [10], 1.26 µM. For the same compound, the TGI in assay [1] came out at 8.44 µM; in assay [2] it was 4.5 µM; in assay [3], 2.56 µM; in assay [4] it was 32.4 µM; in assay [5], 2.48 µM; in assay [6] it was 27.9 µM. Further, the TGI in assay [7] came out at 3.49 µM; in [8] it was 2.94 µM; in assay [9], 2.93 µM; in assay [10], 2.87 µM.
For `OC(CNC1CCCC1)Cn1c2ccccc2c2ccccc21` (stereo not given), the GI50 is 35.9 µM in [1]; 32.7 µM in [2]; above 100 µM in assay [3]; above 100 µM in assay [4]; 51.3 µM in assay [5]; 18.9 µM in assay [6]. Also, the GI50 was above 100 µM in assay [7], 97.2 µM in assay [8], above 100 µM in assay [9] and 16.3 µM in assay [10]. Further, the TGI in assay [1] was above 100 µM; in assay [2], above 100 µM; in [3] it was above 100 µM; in [4], above 100 µM; in [5], above 100 µM; in assay [6], 42.6 µM. The TGI in assay [7] is above 100 µM; in assay [8] it was above 100 µM; in assay [9] it was above 100 µM; in assay [10], 52.5 µM.
For `O=P1(O)c2ccccc2Nc2cc(C(F)(F)F)ccc21`, the TGI in assay [1], in [2], in assay [3], in [4], in [5] and in assay [6] was above 100 µM throughout. Also, the TGI in assay [7], in assay [8], in [9] and in assay [10] was above 100 µM each time.
Regarding `O=C(/C=C/c1ccc(C(F)(F)F)cc1)c1ccc(Nc2nc(NCCO)nc(N3CCOCC3)n2)cc1`, the GI50 is 1.74 µM in assay [1]; 2.76 µM in [2]; 2.54 µM in [3]; 2.74 µM in assay [4]; 1.96 µM in assay [5]; 2.22 µM in assay [6]. Further, the GI50 in assay [7] is 2.09 µM; in assay [8], 1.31 µM; in assay [9], 1.67 µM; in [10], 1.63 µM. In addition, the TGI is 3.97 µM in assay [1]; 8.87 µM in assay [2]; 15.6 µM in [3]; above 100 µM in assay [4]; 3.79 µM in assay [5]; 6.57 µM in [6]. For the same compound, the TGI was 4.08 µM in assay [7], 2.58 µM in assay [8], 3.11 µM in assay [9] and 3.26 µM in [10].
On to `O=Cc1ccc(O)c2ncccc12`, for which the GI50 was 4.65 µM in [1]; 3.58 µM in assay [2]; 7.29 µM in assay [3]; 28.1 µM in assay [4]; 1.4 µM in [5]; 5.59 µM in assay [6]. Besides, the GI50 in assay [7] was 3.71 µM; in assay [8], 4.96 µM; in [9], 2.31 µM; in assay [10], 10.4 µM. The TGI in [1] was 65.5 µM; in assay [2], 27.6 µM; in assay [3] it was 35.4 µM; in assay [4], above 100 µM; in [5], 6.85 µM; in assay [6] it was 45.3 µM. The TGI in assay [7] was 17.5 µM; in [8] it was 36.9 µM; in assay [9], above 54.5 µM; in assay [10] it was 33.8 µM.
`C[CH2][Sn]([CH2]C)([O]C(=O)c1cccc(F)c1)[O][Sn]([CH2]C)([CH2]C)[O]C(=O)c1cccc(F)c1`: the GI50 was 25.4 µM in assay [1]; 18.4 µM in assay [2]; 11.7 µM in assay [3]; above 100 µM in assay [4]; 78.8 µM in [5]; 37.3 µM in assay [6]. Further, the GI50 in [7] was 18.3 µM; in assay [8], 49.8 µM; in assay [9], 15.9 µM; in assay [10], 14.5 µM. For the same compound, the TGI was 50.9 µM in [1]; 32.7 µM in assay [2]; 24.1 µM in assay [3]; above 100 µM in assay [4]; above 100 µM in assay [5]; above 100 µM in [6]. Also, the TGI in assay [7] is 32.2 µM; in assay [8] it was above 100 µM; in assay [9], 29.6 µM; in [10], 27.7 µM.
Consider `C=CCN=C1NC(=O)C(CC(=O)Nc2ccc(C)cc2)S1` (stereo not given), for which the TGI in assay [1], in assay [2], in [3], in assay [4], in [5] and in [6] was above 100 µM in each case. Also, the TGI in [7], in assay [8], in assay [9] and in assay [10] was above 100 µM in each case.

The values above are taken from PubChem BioAssay (NCI).
